According to the NIST ThermoML archive (doi:10.1016/j.jct.2012.02.007):

What was measured:
[1] = osmotic coefficient (dimensionless); mn = molality of the nth substance listed, in mol/kg; settings: 323.15 K, Liquid, Vapor Pressure Osmometer
[2] = mn = molality of the nth substance listed, in mol/kg; settings: 101.3 kPa, Liquid; for speed of sound: Sing-around technique in a fixed-path interferometer; for mass density: Vibrating tube method

CCCCn1cc[n+](C)c1.N#CN=C=[N-] [1-butyl-3-methylimidazolium dicyanamide] + CC(C)O
[1]
Settings | osmotic coefficient
m1 = 0.0572 | 0.973
m1 = 0.0884 | 0.925
m1 = 0.1125 | 0.905
m1 = 0.2169 | 0.838
m1 = 0.3275 | 0.795
m1 = 0.4213 | 0.77
m1 = 0.5065 | 0.757
m1 = 0.8172 | 0.712
m1 = 1.153 | 0.682
m1 = 1.6 | 0.665
m1 = 2.049 | 0.641
m1 = 2.416 | 0.619
m1 = 2.863 | 0.592
m1 = 3.314 | 0.565

[2]
Settings | mass density, 293.15 K [kg/m3] | mass density, 308.15 K [kg/m3] | mass density, 323.15 K [kg/m3] | speed of sound, 293.15 K [m/s] | speed of sound, 308.15 K [m/s] | speed of sound, 323.15 K [m/s]
m1 = 0.0497 | 788.07 | 775.35 | 761.85 | 1163.1 | 1110.6 | 1057.6
m1 = 0.1012 | 790.54 | 777.9 | 764.5 | 1167.4 | 1115.4 | 1062.8
m1 = 0.1541 | 793.01 | 780.44 | 767.13 | 1171.9 | 1120.2 | 1067.8
m1 = 0.2003 | 795.12 | 782.61 | 769.37 | 1175.6 | 1124.1 | 1072
m1 = 0.2521 | 797.4 | 784.94 | 771.79 | 1179.7 | 1128.4 | 1076.6
m1 = 0.5105 | 808.27 | 796.04 | 783.22 | 1199.3 | 1148.9 | 1098.1
m1 = 0.7616 | 817.89 | 805.84 | 793.27 | 1216.7 | 1167 | 1117.1
m1 = 1.016 | 826.92 | 815.02 | 802.67 | 1233.3 | 1184.4 | 1135.3
m1 = 1.264 | 835.03 | 823.26 | 811.1 | 1248.4 | 1200 | 1151.6
m1 = 1.523 | 843.01 | 831.36 | 819.36 | 1263.4 | 1215.6 | 1167.9
m1 = 1.784 | 850.52 | 838.97 | 827.12 | 1278 | 1230.6 | 1183.3
m1 = 2.022 | 856.61 | 845.16 | 833.43 | 1289.6 | 1242.8 | 1196.1
m1 = 2.519 | 868.38 | 857.09 | 845.59 | 1312.7 | 1266.6 | 1220.9
m1 = 3.014 | 878.91 | 867.77 | 856.45 | 1333.7 | 1288.3 | 1243.4
m1 = 3.553 | 889.91 | 878.92 | 867.79 | 1356 | 1311.2 | 1267

CCCCn1cc[n+](C)c1.N#CN=C=[N-] [1-butyl-3-methylimidazolium dicyanamide] + CCCCCO
[1]
Settings | osmotic coefficient
m1 = 0.0625 | 0.784
m1 = 0.0829 | 0.719
m1 = 0.1019 | 0.669
m1 = 0.2131 | 0.627
m1 = 0.3093 | 0.596
m1 = 0.4113 | 0.582
m1 = 0.5349 | 0.566
m1 = 0.8273 | 0.537
m1 = 1.131 | 0.52
m1 = 1.443 | 0.509
m1 = 1.749 | 0.502
m1 = 2.246 | 0.493
m1 = 2.756 | 0.478
m1 = 3.23 | 0.458

[2]
Settings | mass density, 293.15 K [kg/m3] | mass density, 308.15 K [kg/m3] | mass density, 323.15 K [kg/m3] | speed of sound, 293.15 K [m/s] | speed of sound, 308.15 K [m/s] | speed of sound, 323.15 K [m/s]
m1 = 0.0499 | 816.84 | 805.86 | 794.56 | 1296.1 | 1246.2 | 1196.7
m1 = 0.1005 | 818.99 | 808.05 | 796.79 | 1299.3 | 1249.5 | 1200.3
m1 = 0.1579 | 821.34 | 810.43 | 799.21 | 1302.8 | 1253.2 | 1204.2
m1 = 0.2012 | 823.14 | 812.25 | 801.07 | 1305.5 | 1256 | 1207.2
m1 = 0.2575 | 825.39 | 814.53 | 803.38 | 1308.7 | 1259.4 | 1210.8
m1 = 0.5093 | 834.72 | 823.96 | 812.96 | 1322.3 | 1273.7 | 1225.8
m1 = 0.7636 | 843.46 | 832.73 | 821.84 | 1334.4 | 1286.4 | 1238.6
m1 = 1.022 | 851.58 | 840.96 | 830.18 | 1346.7 | 1299.3 | 1252.8
m1 = 1.271 | 858.96 | 848.35 | 837.65 | 1357 | 1310.2 | 1263.7
m1 = 1.52 | 865.82 | 855.32 | 844.69 | 1367.7 | 1321.4 | 1275.9
m1 = 1.766 | 872.07 | 861.65 | 851.09 | 1377 | 1331.2 | 1286.1
m1 = 1.982 | 877.32 | 866.91 | 856.41 | 1385 | 1339.5 | 1294.8
m1 = 2.527 | 889.3 | 878.99 | 868.61 | 1403.6 | 1358.9 | 1315.1
m1 = 2.998 | 898.47 | 888.26 | 877.98 | 1418.4 | 1374.3 | 1331.1
m1 = 3.512 | 907.39 | 897.32 | 887.14 | 1432.6 | 1389.6 | 1347

CCCCn1cc[n+](C)c1.N#CN=C=[N-] [1-butyl-3-methylimidazolium dicyanamide] + CCCCO
[1]
Settings | osmotic coefficient
m1 = 0.0803 | 0.739
m1 = 0.1014 | 0.707
m1 = 0.2018 | 0.653
m1 = 0.31 | 0.625
m1 = 0.4166 | 0.604
m1 = 0.5175 | 0.594
m1 = 0.8182 | 0.585
m1 = 1.221 | 0.564
m1 = 1.633 | 0.551
m1 = 2.026 | 0.536
m1 = 2.413 | 0.528
m1 = 2.82 | 0.522
m1 = 3.306 | 0.508

[2]
Settings | mass density, 293.15 K [kg/m3] | mass density, 308.15 K [kg/m3] | mass density, 323.15 K [kg/m3] | speed of sound, 293.15 K [m/s] | speed of sound, 308.15 K [m/s] | speed of sound, 323.15 K [m/s]
m1 = 0.0564 | 812.2 | 800.77 | 788.99 | 1261.4 | 1211.3 | 1161.9
m1 = 0.1049 | 814.3 | 802.91 | 791.18 | 1264.8 | 1214.9 | 1165.8
m1 = 0.156 | 816.47 | 805.11 | 793.43 | 1268.3 | 1218.6 | 1169.6
m1 = 0.204 | 818.49 | 807.15 | 795.51 | 1271.7 | 1222 | 1173.1
m1 = 0.2581 | 820.7 | 809.41 | 797.8 | 1275.2 | 1225.8 | 1177.1
m1 = 0.5068 | 830.31 | 819.12 | 807.68 | 1290.3 | 1241.6 | 1193.7
m1 = 0.7637 | 839.41 | 828.32 | 817.01 | 1304.9 | 1256.7 | 1209.3
m1 = 1.006 | 847.36 | 836.34 | 825.14 | 1317.6 | 1270 | 1223.2
m1 = 1.271 | 855.38 | 844.45 | 833.35 | 1330.6 | 1283.5 | 1237.4
m1 = 1.516 | 862.28 | 851.41 | 840.4 | 1341.9 | 1295.3 | 1249.7
m1 = 1.766 | 868.85 | 858.05 | 847.12 | 1352.9 | 1306.7 | 1261.6
m1 = 2.004 | 874.76 | 864.01 | 853.15 | 1362.9 | 1317.1 | 1272.3
m1 = 2.509 | 886.17 | 875.53 | 864.81 | 1382.3 | 1337.5 | 1293.4
m1 = 2.993 | 895.87 | 885.33 | 874.72 | 1399.5 | 1355.1 | 1311.7
m1 = 3.535 | 905.44 | 895.01 | 884.51 | 1416.7 | 1373 | 1330.2
